Laboratory results: patent US7829568B2, “Substituted 5,6,7,8-tetrahydroimidazo[1,2-a]pyridin-2-ylamine compounds and their use for producing drugs” (Gruenenthal GmbH, priority 2005, dated 2010)

system: batrachotoxin (BTX) binding site of the sodium channel; assay: Affinity to the batrachotoxin (BTX) binding site of the sodium channel; design: species or system rat; settings: [3H]-batrachotoxinin A20 α-benzoate 10 nM; synaptosomes from rat cerebral cortex; test concentration not given

Going from `CCCCN(C(=O)c1cccc(Cl)c1)c1nc2n(c1C(=O)Nc1ccc3c(c1)OCCO3)CCCC2` [Example 181, 2-[butyl-(3-chloro-benzoyl)-amino]-5,6,7,8-tetrahydro-imidazo[1,2-a]pyridine-3-carboxylic acid (2,3-dihydro-benzo[1,4]dioxin-6-yl)-amide] to `CCCCN(C(=O)c1cccc(Cl)c1)c1nc2n(c1C(=O)Nc1ccc(C(C)(C)C)cc1)CCCC2` [Example 152, 2-[butyl-(3-chloro-benzoyl)-amino]-5,6,7,8-tetrahydro-imidazo[1,2-a]pyridine-3-carboxylic acid (4-tert-butyl-phenyl)-amide], the “BTX inhibition (rat) (% inhibition)” value rises from 82% to 92%.

Compared with `CN(C(=O)c1cccc2ccccc12)c1nc2n(c1C(=O)N1CCc3c([nH]c4ccccc34)C1)CCCC2` [Example 144, naphthalene-1-carboxylic acid methyl-[3-(1,3,4,9-tetrahydro-b-carboline-2-carbonyl)-5,6,7,8-tetrahydro-imidazo[1,2-a]pyridin-2-yl]-amide], `CN(C(=O)c1cccc2ccccc12)c1nc2n(c1C(=O)N1CCN(CCc3ccccc3)CC1)CCCC2` [Example 174, naphthalene-1-carboxylic acid methyl-[3-(4-phenethyl-piperazine-1-carbonyl)-5,6,7,8-tetrahydro-imidazo[1,2-a]pyridin-2-yl]-amide] is higher in “BTX inhibition (rat) (% inhibition)” value: 31% for the first, 47% for the second.

Compared with `CCCCN(C(=O)c1ccc(F)c(F)c1)c1nc2n(c1C(=O)N1CCN(Cc3ccc4c(c3)OCO4)CC1)CCCC2` [Example 137, N-[3-(4-benzo[1,3]dioxol-5-ylmethyl-piperazine-1-carbonyl)-5,6,7,8-tetrahydro-imidazo[1,2-a]pyridin-2-yl]-N-butyl-3,4-difluor-benzamide], `CCCCN(C(=O)c1ccc(F)c(F)c1)c1nc2n(c1C(=O)N1CCN(c3cc(Cl)ccc3C)CC1)CCCC2` [Example 119, N-butyl-N-{3-[4-(5-chloro-2-methyl-phenyl)-piperazine-1-carbonyl]-5,6,7,8-tetrahydro-imidazo[1,2-a]pyridin-2-yl}-3,4-difluoro-benzamide] is higher in “BTX inhibition (rat) (% inhibition)” value: 72% for the first, 83% for the second.

Compared with `CN(C(=O)c1cccc2ccccc12)c1nc2n(c1C(=O)NCc1ccccc1OC(F)(F)F)CCCC2` [Example 99, 2-[methyl-(naphthalene-1-carbonyl)-amino]-5,6,7,8-tetrahydro-imidazo[1,2-a]pyridine-3-carboxylic acid 2-trifluoromethoxy-benzylamide], `CN(C(=O)c1cccc2ccccc12)c1nc2n(c1C(=O)NCc1cccc(Cl)c1Cl)CCCC2` [Example 33, 2-[methyl-(naphthalene-1-carbonyl)-amino]-5,6,7,8-tetrahydro-imidazo[1,2-a]pyridine-3-carboxylic acid 2,3-dichlor-benzylamide] is higher in “BTX inhibition (rat) (% inhibition)” value: 33% for the first, 49% for the second.

Going from `CN(C(=O)c1cccc(Cl)c1)c1nc2n(c1C(=O)NCCC(c1ccccc1)c1ccccc1)CCCC2` [Example 128, 2-[(3-chloro-benzoyl)-methyl-amino]-5,6,7,8-tetrahydro-imidazo[1,2-a]pyridine-3-carboxylic acid (3,3-diphenyl-propyl)-amide] to `CCCCN(C(=O)c1cccc(Cl)c1)c1nc2n(c1C(=O)NC(c1ccccc1)c1ccccc1)CCCC2` [Example 147, 2-[butyl-(3-chloro-benzoyl)-amino]-5,6,7,8-tetrahydro-imidazo[1,2-a]pyridine-3-carboxylic acid benzhydryl-amide], the “BTX inhibition (rat) (% inhibition)” value falls from 85% to 56%.

First: CCCCN(C(=O)c1cccc(Cl)c1)c1nc2n(c1C(=O)N1CCN(CCCc3ccccc3)CC1)CCCC2 [Example 26, N-butyl-3-chloro-N-{3-[4-(3-phenyl-propyl)-piperazine-1-carbonyl]-5,6,7,8-tetrahydro-imidazo[1,2-a]pyridin-2-yl}-benzamide]
Second: CCCCN(C(=O)c1cccc(Cl)c1)c1nc2n(c1C(=O)NC(C)CCc1ccccc1)CCCC2 (stereo not shown) [Example 145, 2-[butyl-(3-chloro-benzoyl)-amino]-5,6,7,8-tetrahydro-imidazo[1,2-a]pyridine-3-carboxylic acid (1-methyl-3-phenyl-propyl)-amide]
The “BTX inhibition (rat) (% inhibition)” value of the first is higher: 93% for the first, 67% for the second.

First: CCCCN(C(=O)c1ccc(F)c(F)c1)c1nc2n(c1C(=O)N1CCN(C(c3ccccc3)c3ccccc3)CC1)CCCC2 [Example 56, N-[3-(4-benzhydryl-piperazine-1-carbonyl)-5,6,7,8-tetrahydro-imidazo[1,2-a]pyridin-2-yl]-N-butyl-3,4-difluoro-benzamide]
Second: CCCCN(C(=O)c1ccc(F)c(F)c1)c1nc2n(c1C(=O)NC1CCCCC1OCc1ccccc1)CCCC2 (stereo not shown) [Example 161, 2-[butyl-(3,4-difluoro-benzoyl)-amino]-5,6,7,8-tetrahydro-imidazo[1,2-a]pyridine-3-carboxylic acid (2-benzyloxy-cyclohexyl)-amide]
The “BTX inhibition (rat) (% inhibition)” value of the first is higher: 65% for the first, 49% for the second.

Compared with `CC(C)CC(NC(=O)c1c(N(C)C(=O)c2cccc3ccccc23)nc2n1CCCC2)C(=O)OCc1ccccc1` (stereo not shown) [Example 57, 4-methyl-2-({2-[methyl-(naphthalene-1-carbonyl)-amino]-5,6,7,8-tetrahydro-imidazo[1,2-a]pyridine-3-carbonyl}-amino)-pentanoic acid benzyl ester], `CC(CNC(=O)c1c(N(C)C(=O)c2cccc3ccccc23)nc2n1CCCC2)c1ccc(Cl)cc1` (stereo not shown) [Example 163, 2-[methyl-(naphthalene-1-carbonyl)-amino]-5,6,7,8-tetrahydro-imidazo[1,2-a]pyridine-3-carboxylic acid [2-(4-chlor-phenyl)-propyl]-amide] is higher in “BTX inhibition (rat) (% inhibition)” value: 31% for the first, 40% for the second.

Compared with `CCCCN(C(=O)c1cccc(Cl)c1)c1nc2n(c1C(=O)NC1CCCCC1)CCCC2` [Example 120, 2-[butyl-(3-chloro-benzoyl)-amino]-5,6,7,8-tetrahydro-imidazo[1,2-a]pyridine-3-carboxylic acid cyclohexylamide], `CCCCN(C(=O)c1ccc(F)c(F)c1)c1nc2n(c1C(=O)NC1CCC(C)CC1)CCCC2` (stereo not shown) [Example 16, 2-[butyl-(3,4-difluoro-benzoyl)-amino]-5,6,7,8-tetrahydro-imidazo[1,2-a]pyridine-3-carboxylic acid (4-methyl-cyclohexyl)-amide] is lower in “BTX inhibition (rat) (% inhibition)” value: 61% for the first, 47% for the second.

Going from `CN(C(=O)c1cccc2ccccc12)c1nc2n(c1C(=O)NCC(c1ccccc1)c1ccccc1)CCCC2` [Example 46, 2-[methyl-(naphthalene-1-carbonyl)-amino]-5,6,7,8-tetrahydro-imidazo[1,2-a]pyridine-3-carboxylic acid (2,2-diphenyl-ethyl)-amide] to `CN(C(=O)c1cccc2ccccc12)c1nc2n(c1C(=O)NC1CCN(Cc3ccc(C(F)(F)F)cc3)C1)CCCC2` (stereo not shown) [Example 30, 2-[methyl-(naphthalene-1-carbonyl)-amino]-5,6,7,8-tetrahydro-imidazo[1,2-a]pyridine-3-carboxylic acid [1-(4-trifluoromethyl-benzyl)-pyrrolidin-3-yl]-amide], the “BTX inhibition (rat) (% inhibition)” value rises from 67% to 85%.

Compared with `CCCCN(C(=O)c1ccc(F)c(F)c1)c1nc2n(c1C(=O)NCC1COc3ccccc3O1)CCCC2` (stereo not shown) [Example 96, 2-[butyl-(3,4-difluoro-benzoyl)-amino]-5,6,7,8-tetrahydro-imidazo[1,2-a]pyridine-3-carboxylic acid (2,3-dihydro-benzo[1,4]dioxin-2-ylmethyl)-amide], `CCCCN(C(=O)c1ccc(F)c(F)c1)c1nc2n(c1C(=O)NCc1ccccc1OC(F)(F)F)CCCC2` [Example 88, 2-[butyl-(3,4-difluoro-benzoyl)-amino]-5,6,7,8-tetrahydro-imidazo[1,2-a]pyridine-3-carboxylic acid 2-trifluoromethoxy-benzylamide] is lower in “BTX inhibition (rat) (% inhibition)” value: 33% for the first, 31% for the second.

Going from `CC(NC(=O)c1c(N(C)C(=O)c2cccc(Cl)c2)nc2n1CCCC2)C12CC3CC(CC(C3)C1)C2` (stereo not shown) [Example 165, 2-[(3-chloro-benzoyl)-methyl-amino]-5,6,7,8-tetrahydro-imidazo[1,2-a]pyridine-3-carboxylic acid (1-adamantan-1-yl-ethyl)-amide] to `CN(C(=O)c1cccc(Cl)c1)c1nc2n(c1C(=O)NC1CCN(Cc3c(Cl)cccc3Cl)C1)CCCC2` (stereo not shown) [Example 83, 2-[(3-chloro-benzoyl)-methyl-amino]-5,6,7,8-tetrahydro-imidazo[1,2-a]pyridine-3-carboxylic acid [1-(2,6-dichlor-benzyl)-pyrrolidin-3-yl]-amide], the “BTX inhibition (rat) (% inhibition)” value rises from 39% to 80%.

Compared with `CCCCN(C(=O)c1cccc(Cl)c1)c1nc2n(c1C(=O)NCc1ccccc1C(F)(F)F)CCCC2` [Example 51, 2-[butyl-(3-chloro-benzoyl)-amino]-5,6,7,8-tetrahydro-imidazo[1,2-a]pyridine-3-carboxylic acid 2-trifluoromethyl-benzylamide], `CCCCN(C(=O)c1cccc(Cl)c1)c1nc2n(c1C(=O)NC(COC)Cc1ccccc1)CCCC2` (stereo not shown) [Example 86, 2-[butyl-(3-chloro-benzoyl)-amino]-5,6,7,8-tetrahydro-imidazo[1,2-a]pyridine-3-carboxylic acid (1-methoxymethyl-2-phenyl-ethyl)-amide] is higher in “BTX inhibition (rat) (% inhibition)” value: 35% for the first, 42% for the second.

Going from `CN(C(=O)c1cccc(Cl)c1)c1nc2n(c1C(=O)N1CCN(Cc3ccc4ccccc4n3)CC1)CCCC2` [Example 53, 3-chloro-N-methyl-N-[3-(4-quinolin-2-ylmethyl-piperazine-1-carbonyl)-5,6,7,8-tetrahydro-imidazo[1,2-a]pyridin-2-yl]-benzamide] to `CCCCN(C(=O)c1cccc(Cl)c1)c1nc2n(c1C(=O)NC(C)c1ccc3ccccc3c1)CCCC2` (stereo not shown) [Example 141, 2-[butyl-(3-chloro-benzoyl)-amino]-5,6,7,8-tetrahydro-imidazo[1,2-a]pyridine-3-carboxylic acid (1-naphthalen-2-yl-ethyl)-amide], the “BTX inhibition (rat) (% inhibition)” value falls from 64% to 41%.
